Results published in patent EP0810221A1 (MITSUBISHI CHEMICAL CORPORATION, priority 1995, dated 1996).

Assays:
[1] = target: T1, cathepsin B (Sigma, C-6286) (Bos taurus, UniProt P07688); test: Inhibitory activity against cathepsin B; assay type: biochemical; conditions: Inhibitory activity against cathepsin B (Table-5)
T1 construct: purchased Sigma C-6286
Description: Inhibitory activity against cathepsin B (Sigma, C-6286) was determined according to a method described in a literature (Biochemical Journal, Vol. 201, p. 189, 1982).

m-Calpain = target: T2, m-Calpain (Rattus norvegicus, UniProt Q07009); test: Inhibitory activity against calpain (m-Calpain purified from brains of rats); assay type: biochemical
T2 construct: m-Calpain was purified from brains of rats; from tissue; host or cells: rat brain
T2 sequence (Q07009 20-700 limits assumed): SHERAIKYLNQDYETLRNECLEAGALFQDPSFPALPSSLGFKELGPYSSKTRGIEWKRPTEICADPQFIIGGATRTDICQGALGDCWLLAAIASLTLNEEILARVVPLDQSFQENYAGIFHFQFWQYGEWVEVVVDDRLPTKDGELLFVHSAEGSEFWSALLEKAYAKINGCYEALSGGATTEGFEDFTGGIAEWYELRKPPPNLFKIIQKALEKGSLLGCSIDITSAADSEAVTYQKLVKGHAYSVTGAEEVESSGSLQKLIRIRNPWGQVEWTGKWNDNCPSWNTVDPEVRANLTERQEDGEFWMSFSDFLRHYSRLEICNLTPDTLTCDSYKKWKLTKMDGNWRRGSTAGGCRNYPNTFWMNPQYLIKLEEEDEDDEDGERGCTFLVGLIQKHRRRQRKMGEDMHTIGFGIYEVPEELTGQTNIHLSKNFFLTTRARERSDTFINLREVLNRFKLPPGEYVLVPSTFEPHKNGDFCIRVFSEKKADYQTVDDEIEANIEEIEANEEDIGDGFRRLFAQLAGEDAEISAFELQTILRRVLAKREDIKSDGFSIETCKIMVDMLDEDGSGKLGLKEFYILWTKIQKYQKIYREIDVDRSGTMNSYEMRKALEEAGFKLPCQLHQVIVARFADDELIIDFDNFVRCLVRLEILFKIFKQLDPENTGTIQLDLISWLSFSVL
T2 sequence (Q64537 1-270 partner): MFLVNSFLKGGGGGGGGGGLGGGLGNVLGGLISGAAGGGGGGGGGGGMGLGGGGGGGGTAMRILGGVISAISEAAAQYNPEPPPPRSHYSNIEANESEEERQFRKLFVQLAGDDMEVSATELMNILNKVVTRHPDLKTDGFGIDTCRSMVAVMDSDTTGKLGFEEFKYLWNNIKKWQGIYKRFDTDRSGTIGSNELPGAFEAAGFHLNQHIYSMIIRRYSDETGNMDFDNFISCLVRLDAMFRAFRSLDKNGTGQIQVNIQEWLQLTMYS
Description: m-Calpain was purified from brains of rats according to a method described in a literature (Journal of Biological Chemistry, Vol. 259, p. 3210, 1984), and the inhibitory activity was determined in a manner according to a published method (Journal of Biological Chemistry, Vol. 259, p. 12489, 1984).

[2] = Inhibitory activity against calpain (Table-6)
[3] = Inhibitory activity against calpain (continuation of Table-6)

CC(C)C[C@H](NS(=O)(=O)c1ccccc1)C(=O)N[C@H]1CCOC1O (stereo partly drawn) [Example 1, (3S)-3-((S)-4-methyl-2-phenylsulfonylaminovalerylamino)-2-tetrahydrofuranol]
IC50 [1]: 420 nM
IC50 (m-Calpain; [2]): 620 nM

CCC[C@H](NC(=O)OCc1ccccc1)C(=O)N[C@H]1CCOC1O (stereo partly drawn) [Example 4, (3S)-3-((S)-2-benzyloxycarbonylaminovalerylamino)-2-tetrahydrofuranol]
IC50 [1]: 700 nM
IC50 (m-Calpain; [2]): 900 nM

CC(C)[C@H](NC(=O)OCc1ccccc1)C(=O)NC1CCOC1O (stereo partly drawn) [Example 5, 3-((S)-2-benzyloxycarbonylamino-3-methylbutyrylamino)-2-tetrahydrofuranol]
IC50 [1]: 980 nM
IC50 (m-Calpain; [2]): 2300 nM

CCCC[C@H](NC(=O)OCc1ccccc1)C(=O)N[C@H]1CCOC1O (stereo partly drawn) [Example 6, (3S)-3-((S)-2-benzyloxycarbonylaminohexanoylamino)-2-tetrahydrofuranol]
IC50 [1]: 1350 nM
IC50 (m-Calpain; [2]): 2300 nM

CCC(C)[C@H](NC(=O)OCc1ccccc1)C(=O)N[C@H]1CCOC1O (stereo partly drawn) [Example 7, (3S)-3-((2S)-2-benzyloxycarbonylamino-3-methylvalerylamino)-2-tetrahydrofuranol]
IC50 [1]: 900 nM
IC50 (m-Calpain; [2]): 2400 nM

COC(=O)N[C@@H](CC(C)C)C(=O)NC1CCOC1O (stereo partly drawn) [Example 9, 3-((S)-2-methoxycarbonylamino-4-methylvalerylamino)-2-tetrahydrofuranol]
IC50 (m-Calpain; [2]): 1550 nM

CC(C)C[C@H](NC(=O)OC(C)(C)C)C(=O)N[C@H]1CCOC1O (stereo partly drawn) [Example 10, (3S)-3-((S)-2-tert-butoxycarbonylamino-4-methylvalerylamino)-2-tetrahydrofuranol]
IC50 [1]: 370 nM
IC50 (m-Calpain; [2]): 960 nM

CC(C)COC(=O)N[C@@H](CC(C)C)C(=O)N[C@H]1CCOC1O (stereo partly drawn) [Example 11, (3S)-3-((S)-2-isobutoxycarbonylamino-4-methylvalerylamino)-2-tetrahydrofuranol]
IC50 [1]: 2150 nM
IC50 (m-Calpain; [2]): 1100 nM

CC(C)C[C@H](NC(=O)OCC1CCCCC1)C(=O)N[C@H]1CCOC1O (stereo partly drawn) [Example 12, (3S)-3-((S)-2-cyclohexylmethoxycarbonylamino-4-methylvalerylamino)-2-tetrahydrofuranol]
IC50 [1]: 1200 nM
IC50 (m-Calpain; [2]): 650 nM

CC(C)C[C@H](NC(=O)OCc1ccccc1)C(=O)N[C@H]1CCOC1O (stereo partly drawn) [Example 13, (3S)-3-((S)-2-benzyloxycarbonylamino-4-methylvalerylamino)-2-tetrahydrofuranol]
IC50 [1]: 380 nM
IC50 (m-Calpain; [2]): 660 nM

CC(C)C[C@H](NC(=O)OCc1ccc(F)cc1)C(=O)N[C@H]1CCOC1O (stereo partly drawn) [Example 15, (3S)-3-{(S)-2-(4-fluorobenzyloxycarbonylamino)-4-methylvalerylamino}-2-tetrahydrofuranol]
IC50 [1]: 700 nM
IC50 (m-Calpain; [2]): 680 nM

CC(C)C[C@H](NC(=O)OCc1ccccc1Cl)C(=O)N[C@H]1CCOC1O (stereo partly drawn) [Example 16, (3S)-3-{(S)-2-(2-chlorobenzyloxycarbonylamino)-4-methylvalerylamino}-2-tetrahydrofuranol]
IC50 [1]: 1000 nM
IC50 (m-Calpain; [2]): 340 nM

CC(C)C[C@H](NC(=O)OCC1c2ccccc2-c2ccccc21)C(=O)N[C@H]1CCOC1O (stereo partly drawn) [Example 22, (3S)-3-{(S)-2-(9-fluorenylmethoxycarbonylamino)-4-methylvalerylamino}-2-tetrahydrofuranol]
IC50 (m-Calpain; [2]): 410 nM

CC(C)C[C@H](NC(=O)OCC1CCCO1)C(=O)N[C@H]1CCOC1O (stereo partly drawn) [Example 23, (3S)-3-((S)-4-methyl-2-tetrahydrofurfuryloxycarbonylaminovalerylamino)-2-tetrahydrofuranol]
IC50 (m-Calpain; [2]): 1100 nM

CC(C)C[C@H](NC(=O)OCc1cccc[n+]1[O-])C(=O)NC1CCOC1O (stereo partly drawn) [Example 26, 3-{(S)-4-methyl-2-(2-pyridylmethoxycarbonylamino)valerylamino)-2-tetrahydrofuranol N-oxide]
IC50 (m-Calpain; [2]): 1400 nM

CC(C)C[C@H](NC(=O)c1ccccc1F)C(=O)N[C@H]1CCOC1O (stereo partly drawn) [Example 40, (3S)-3-{(S)-2-(2-fluorobenzoylamino)-4-metylvalerylamino}-2-tetrahydrofuranol]
IC50 [1]: 1000 nM

Cc1ccc(C(=O)N[C@@H](CC(C)C)C(=O)N[C@H]2CCOC2O)cc1 (stereo partly drawn) [Example 46, (3S)-3-{(S)-4-methyl-2-(4-methylbenzoylamino)valerylamino}-2-tetrahydorofuranol]
IC50 [1]: 270 nM

Cc1cccc(C)c1C(=O)N[C@@H](CC(C)C)C(=O)N[C@H]1CCOC1O (stereo partly drawn) [Example 47, (3S)-3-{(S)-2-(2,6-dimethylbenzoylamino)-4-methylvalerylamino)-2-tetrahydrofuranol]
IC50 (m-Calpain; [2]): 2300 nM

Cc1cc(C)c(C(=O)N[C@@H](CC(C)C)C(=O)N[C@H]2CCOC2O)c(C)c1 (stereo partly drawn) [Example 49, (3S)-3-{(S)-4-methyl-2-(2,4,6-trimethylbenzoylamino)valerylamino}-2-tetrahydrofuranol]
IC50 (m-Calpain; [2]): 680 nM

COc1ccccc1C(=O)N[C@@H](CC(C)C)C(=O)N[C@H]1CCOC1O (stereo partly drawn) [Example 52, (3S)-3-{(S)-2-(2-methoxybenzoylamino)-4-methylvalerylamino)-2-tetrahydrofuranol]
IC50 (m-Calpain; [2]): 340 nM

COc1ccc(C(=O)N[C@@H](CC(C)C)C(=O)N[C@H]2CCOC2O)c(OC)c1 (stereo partly drawn) [Example 54, (3S)-3-{(S)-2-(2,4-dimethoxybenzoylamino)-4-methylvalerylamino}-2-tetrahydrofuranol]
IC50 (m-Calpain; [2]): 700 nM

CC(C)C[C@H](NC(=O)C1CCc2ccccc2O1)C(=O)N[C@H]1CCOC1O (some centres unmarked) [Example 63]
IC50 (m-Calpain; [3]): 350 nM

CC(C)C[C@H](NS(=O)(=O)c1ccc(F)cc1)C(=O)N[C@H]1CCOC1O (stereo partly drawn) [Example 66, (3S)-3-{(S)-2-(4-fluorophenylsulfonylamino)-4-methylvalerylamino}-2-tetrahydrofuranol]
IC50 (m-Calpain; [3]): 600 nM

CC(C)C[C@H](NS(=O)(=O)c1ccc(Cl)cc1)C(=O)N[C@H]1CCOC1O (stereo partly drawn) [Example 68, (3S)-3-{(S)-2-(4-chlorophenylsulfonylamino)-4-methylvalerylamino}-2-tetrahydrofuranol]
IC50 (m-Calpain; [3]): 560 nM

CC(C)C[C@H](NS(=O)(=O)c1ccc(Br)cc1)C(=O)N[C@H]1CCOC1O (stereo partly drawn) [Example 69, (3S)-3-{(S)-2-(4-bromophenylsulfonylamino)-4-methylvalerylamino}-2-tetrahydrofuranol]
IC50 (m-Calpain; [3]): 620 nM

Cc1ccc(S(=O)(=O)N[C@@H](CC(C)C)C(=O)N[C@H]2CCOC2O)cc1 (stereo partly drawn) [Example 70, (3S)-3-{(S)-4-methyl-2-(4-methylphenylsulfonylamino)valerylamino}-2-tetrahydrofuranol]
IC50 (m-Calpain; [3]): 500 nM

Cc1cc(C)c(S(=O)(=O)N[C@@H](CC(C)C)C(=O)N[C@H]2CCOC2O)c(C)c1 (stereo partly drawn) [Example 71, (3S)-3-{(S)-4-methyl-2-(2,4,6-trimethylphenylsulfonylamino)valerylamino}-2-tetrahydrofuranol]
IC50 (m-Calpain; [3]): 450 nM

CC(C)C[C@H](NS(=O)(=O)c1ccc(C(C)(C)C)cc1)C(=O)N[C@H]1CCOC1O (stereo partly drawn) [Example 72, (3S)-3-{(S)-2-(4-tert-butylphenylsulfonylamino)-4-methylvalerylamino}-2-tetrahydrofuranol]
IC50 (m-Calpain; [3]): 390 nM

COc1ccc(S(=O)(=O)N[C@@H](CC(C)C)C(=O)N[C@H]2CCOC2O)cc1 (stereo partly drawn) [Example 73, (3S)-3-{(S)-2-(4-methoxyphenylsulfonylamino)-4-methylvalerylamino}-2-tetrahydrofuranol]
IC50 (m-Calpain; [3]): 740 nM

CC(C)C[C@H](NS(=O)(=O)c1cccc([N+](=O)[O-])c1)C(=O)N[C@H]1CCOC1O (stereo partly drawn) [Example 74, (3S)-3-{(S)-4-methyl-2-(3-nitrophenylsulfonylamino)valerylamino}-2-tetrahydrofuranol]
IC50 (m-Calpain; [3]): 950 nM

O=C(N[C@@H](Cc1ccccc1)C(=O)N[C@H]1CCOC1O)OCc1ccccc1 (stereo partly drawn) [Example 78, (3S)-3-((S)-2-benzyloxycarbonylamino-3-phenylpropionylamino)-2-tetrahydrofuranol]
IC50 [1]: 300 nM

CC(C)C[C@H](NS(=O)(=O)c1ccccc1)C(=O)N[C@H]1C(C)COC1O (stereo partly drawn) [Example 80, (3S)-4-methyl-3-((S)-4-methyl-2-phenylsulfonylaminovalerylamino)-2-tetrahydrofuranol]
IC50 (m-Calpain; [3]): 2800 nM

CC(C)C[C@H](NC(=O)OCc1ccccc1)C(=O)N[C@H]1CCCOC1O (some centres unmarked) [Example 81]
IC50 (m-Calpain; [3]): 1550 nM
